From article PMC3074252 (Journal of medicinal chemistry, 2011)
Like-named read-outs stand apart in the source and are kept apart here.

Columns and labels:
[1] = test system: PC12 cells expressing G93A SOD1-YFP; format: cell-based
[2] = test system: G85R SOD1; assay: High content G85R-SOD1 aggregation assay; format: cell-based
[3] = mice, 50 mg/kg peritoneally, 1 h after injection
[4] = Sprague-Dawley rats, in PBS
[5] = test system: 68 in vitro radioligand binding assays; conditions: 10 μM, in duplicate, 68 assays
[6] = in vivo; conditions: Sprague-Dawley, rat, iv, 1 mg/kg

SMILES | activity in cytotoxicity protection assay [1] | other results
O=C1CCC(=O)N(CCc2ccccc2)C(=O)N1CCc1ccccc1 [Compound 52, 1,3-Diphenethyl-1,3-diazepane-2,4,7-trione] | none was active | 
O=C1CC(=O)N(C2CCCCC2)C(=O)N1 [Compound 2, 1-Cyclohexylpyrimidine-2,4,6(1H,3H,5H)-trione] | no activity | 
CCCCN1C(=O)CC(=O)NC1=O [Compound 1, 1-Butylpyrimidine-2,4,6(1H,3H,5H)-trione] | no activity | 
COc1cc(=O)n(CCc2ccccc2)c(=O)n1CCc1ccccc1 [Compound 47, 6-methoxy-1,3-diphenethylpyrimidine-2,4(1H,3H)-dione] | inactive | 
O=C1CC(=O)N(CCc2ccccc2)C(=O)N1CCc1ccccc1 [Compound 7, 1,3-Diphenethylpyrimidine-2,4,6(1H,3H,5H)-trione] |  | reduction in aggregates, fluorescence images ([2]; cells treated with MG132 plus 10 μM compound): significant reduction in aggregates; reduction in the number of aggregates of G85R SOD1 ([2]; dose dependence): concentration dependent; blood level [3]: 150 µM; brain level [3]: 50 µM; AUC/Dose ([4]; 1 mg/kg i.v.): 126 ng · h/mL/dose; AUC/Dose ([4]; 1 mg/kg p.o.): 124 ng · h/mL/dose; inhibitory effect across profiling screen [5]: No significant inhibitory effect; clearance [6]: 133 mL/min/kg
O=C1C(=O)N(CCc2ccccc2)C(=O)N1CCc1ccccc1 [Compound 49, 1,3-Diphenethylimidazolidine-2,4,5-trione] | none was active | 
O=c1cc(Cl)n(CCc2ccccc2)c(=O)n1CCc1ccccc1 [Compound 46, 6-chloro-1,3-diphenethylpyrimidine-2,4(1H,3H)-dione] | inactive | 
O=C1C(=O)N(C2CCCCC2)C(=O)N1C1CCCCC1 [Compound 51, 1,3-Dicyclohexylimidazolidine-2,4,5-trione] | none was active | 
O=C1CC(=O)N(CCN2CCOCC2)C(=O)N1CCc1ccc(F)cc1 [Compound 34, 1-(4-Fluorophenethyl)-3-(2-morpholinoethyl)pyrimidine-2,4,6(1H,3H,5H)-trione] | inactive | 
